Reference: publication PMC9002393, “Phytochemical Study of Eryngium cymosum F. Delaroche and the Inhibitory Capacity of Its Main Compounds on Two Glucose-Producing Pathway Enzymes” (Plants, 2022)
One block for each molecule: values may come before it.

What was measured:
[1] = molecular target: T1, fructose-1,6-bisphosphatase (FBPase) (Rattus norvegicus, UniProt P19112); experiment: Inhibition assay of fructose-1,6-bisphosphatase (FBPase); assay type: biochemical; conditions: rat liver cytosolic supernatant; for IC50: mean ± SEM of two assays in duplicate
T1 construct: Enzymatic activity started by adding rat liver cytosolic supernatant diluted 9:1; from tissue; host or cells: rat liver cytosolic supernatant
T1 sequence (P19112 2-363 limits assumed): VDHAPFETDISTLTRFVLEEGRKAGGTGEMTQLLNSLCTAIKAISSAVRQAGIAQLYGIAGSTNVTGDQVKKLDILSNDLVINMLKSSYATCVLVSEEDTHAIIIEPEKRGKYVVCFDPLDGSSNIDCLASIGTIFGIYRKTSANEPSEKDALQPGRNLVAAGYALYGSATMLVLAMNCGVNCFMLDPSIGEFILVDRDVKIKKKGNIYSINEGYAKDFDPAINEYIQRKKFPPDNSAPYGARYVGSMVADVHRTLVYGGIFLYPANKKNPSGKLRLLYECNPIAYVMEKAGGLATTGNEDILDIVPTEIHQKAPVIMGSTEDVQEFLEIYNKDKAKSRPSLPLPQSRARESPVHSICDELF
Protocol: Buffer (5 μM EDTA, 5 mM MgCl2, 50 mM Tris-HCl, pH 7.2) enriched with 0.1 mM of fructose-1,6-bisphosphate was added and incubated for 5 min with different concentrations of inhibitor or samples (adenosine 5′-monophosphate or compounds) in reaction mixtures of 1 mL. Enzymatic activity started by adding rat liver cytosolic supernatant diluted 9:1 and, 15 min later, ended with the addition of a color reagent previously prepared by mixing 1 volume of 7.5% ammonium molybdate and 0.17% TWEEN 20 with 4 volumes of stock solution (0.12% malachite green in 5 volumes of water with 1 volume of H2SO4). Finally, the reaction mixtures were incubated for 10 min at room temperature and measured at 630 nm.

[2] = molecular target: T2, glucose-6-phosphatase (G6Pase) (Rattus norvegicus, UniProt P43428); experiment: Inhibition assay of glucose-6-phosphatase (G6Pase); assay type: biochemical; conditions: rat liver microsomal fractions
T2 sequence (P43428 1-357): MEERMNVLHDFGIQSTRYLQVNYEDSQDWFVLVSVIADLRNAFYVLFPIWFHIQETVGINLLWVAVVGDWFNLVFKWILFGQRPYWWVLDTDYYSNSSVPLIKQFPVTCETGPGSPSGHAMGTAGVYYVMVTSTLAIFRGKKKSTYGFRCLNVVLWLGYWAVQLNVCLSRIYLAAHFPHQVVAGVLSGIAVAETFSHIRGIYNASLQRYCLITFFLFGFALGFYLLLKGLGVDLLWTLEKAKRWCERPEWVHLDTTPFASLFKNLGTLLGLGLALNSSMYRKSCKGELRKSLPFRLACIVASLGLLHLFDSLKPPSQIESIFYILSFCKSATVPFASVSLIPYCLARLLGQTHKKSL
Protocol: Rat liver microsomal fractions isolated through differential centrifugation were diluted 1:1 in buffer (40 mM imidazole, 250 mM sucrose, pH 7) and added to reaction mixtures, containing buffer and different concentrations of inhibitor samples (chlorogenic acid or compounds). Enzymatic activity started by adding 20 mM of glucose-6-phosphate (G6P). Next, the mixtures were incubated at 22 °C for 20 min and ended with the addition of 900 μL of a solution of 0.42% ammonium molybdate in 1 N H2SO4, 10% SDS, and 10% ascorbic acid. Finally, they were incubated at 45 °C for 20 min and measured at 830 nm.

[3] = molecular target: α-amylase; parameters: method as in PMID 24825096; conditions: cited from earlier work
[4] = molecular target: α-glucosidase; parameters: method as in PMID 24825096; conditions: cited from earlier work
[5] = test system: db/db mouse; parameters: method as in PMID 16644902; conditions: treated for 5 weeks; cited from earlier work
[6] = test system: STZ-induced diabetic rats; parameters: method as in PMID 20506690; conditions: oral administration for 45 days, 100 mg/kg bw; cited from earlier work
[7] = test system: STZ-induced diabetic rats; parameters: method as in PMID 21433280; conditions: 4 days of ad libitum consumption; cited from earlier work
[8] = test system: high-fat diet model-STZ-induced rats; parameters: method as in doi:10.1016/j.bionut.2014.03.006; conditions: consumption for 30 days; cited from earlier work
[9] = test system: ALR-2; parameters: method as in earlier work; conditions: read-out: ALR2 IC50; cited from earlier work
[10] = test system: ALR-1; parameters: method as in earlier work; conditions: read-out: ALR1 IC50; cited from earlier work

IC50 [1]: 48.7 µM
Compound: Nc1ncnc2c1ncn2[C@@H]1O[C@H](COP(=O)(O)O)[C@@H](O)[C@H]1O [Adenosine 5′-monophosphate, reference compound]

Compound: O=C(O)/C=C/c1ccc(O)c(O)c1 [Caffeic acid (4), caffeic acid]
inhibition over G6Pase (in words) [2]: modest inhibition
inhibition over FBPase (in words) [1]: no inhibition
α-amylase IC50 [3]: 3.68 µg/mL
α-glucosidase IC50 [4]: 4.98 µg/mL
blood insulin levels [5]: blood insulin levels increased
plasma glucose levels [5]: plasma glucose levels decreased

inhibition over G6Pase (in words) [2]: important inhibition
inhibition over FBPase (in words) [1]: important inhibition
IC50 [1]: 70.9 µM
Compound: O=C(/C=C/c1ccc(O)cc1)OC[C@H]1O[C@@H](Oc2c(-c3ccc(O)cc3)oc3cc(O)cc(O)c3c2=O)[C@H](OC(=O)/C=C/c2ccc(O)cc2)[C@@H](O)[C@@H]1O [kaempferol-3-O-(2,6-di-O-trans-ρ-coumaryl)-β-D-glucopyranoside]

Compound: O=C(O)c1ccc(O)c(O)c1 [protocatechuic acid (3), protocatechuic acid]
plasma glucose [6]: decrease in plasma glucose
plasma insulin [6]: increase in plasma insulin

Compound: O=C(/C=C/c1ccc(O)c(O)c1)O[C@H](Cc1ccc(O)c(O)c1)C(=O)O [rosmarinic acid (2), rosmarinic acid]
blood glucose levels [7]: blood glucose levels were decreased
blood glucose levels [8]: decrease in blood glucose levels
plasma insulin [8]: increase in plasma insulin

Compound: O=C1NC(=O)[C@@]2(CCOc3ccc(F)cc32)N1 [sorbinil]
IC50 [9]: 3.14 ± 0.02 µM

Compound: CCCC(CCC)C(=O)O [valproic acid]
IC50 [10]: 57.4 ± 0.89 µM
